{"source": "paper PMC9281440", "about": "“In Vivo Distribution and Therapeutic Efficacy of Radioiodine-Labeled pH-Low Insertion Peptide Variant 3 in a Mouse Model of Breast Cancer” (Molecular Imaging, 2022)", "system": "MDA-MB-231 xenografts", "experiment": "Therapeutic efficacy in MDA-MB-231 xenografts", "type": "in vivo, mouse", "details": "tail vein injection on days 0 and 3 (29.6 MBq each for radioactive groups), end of treatment (26 days), mean ± SD, n = 5", "protocol": "Five-week-old female athymic BALB/c nude mice (Shanghai Slaccas Experiment Animal Corp., Shanghai, China) were used in our study. Mouse xenograft models of MDA-MB-231, 4T1, and SK-BR-3 cells were produced by the subcutaneous injection of 5 × 10^6 cells (suspended in 150 μL PBS) into the right axilla of each mouse. The mice were used in subsequent experiments when tumor diameter reached 0.5-0.9 cm. The study protocol was approved by the institutional review board and by the Experimental Animal Center of Ruijin Hospital affiliated to the School of Medicine of Shanghai Jiao Tong University.\nTwenty mice-bearing MDA-MB-231 human BC xenografts were divided into four groups of five animals. Group 1 was injected with ^131I-Var3-pHLIP in the tail vein on days 0 and 3 (29.6 MBq each day). Groups 2, 3, and 4 were injected with the same volume of Var3-pHLIP, ^131I (29.6 MBq), and saline solution, respectively. Tumor size was measured every 2 to 4 days postinjection (pi) for 26 days using a caliper. Tumor volumes (V, […]) were calculated using the formula: V = (a × b^2)/2, where a and b are tumor length and width, respectively. Relative tumor volumes were calculated as V/V0 (V0, tumor volume before treatment). The body weight of mice was also determined."}
{"sequence": "ACDDQNPWRAYLDLLFPTDTLLLDLLWK [Var3-pHLIP]", "values": [{"measurement": "relative tumor volume (V/V0)", "result": "4.17 ± 0.51"}]}
